Assay type in all cases: cell-based
Assay [1] deals with T1, hGLP-1R (Homo sapiens, UniProt P43220). As to the kind of experiment: Functional cAMP activation in the presence of 0.1% casein (no HSA). The note with it: read-out: Relative cAMP EC50, hGLP-1R.
Another assay has as its target hGcgR (Homo sapiens, UniProt P47871). The description is as above. The conditions noted are these: read-out: Relative cAMP EC50, hGcgR.
The target in the next assay is human GcgR (Homo sapiens, UniProt P47871). Put plainly: Functional cAMP activity in the presence of 1% HSA. The note with it: read-out: cAMP Rel EC50, hGcgR.
Sequence of human GcgR (P47871 26-477): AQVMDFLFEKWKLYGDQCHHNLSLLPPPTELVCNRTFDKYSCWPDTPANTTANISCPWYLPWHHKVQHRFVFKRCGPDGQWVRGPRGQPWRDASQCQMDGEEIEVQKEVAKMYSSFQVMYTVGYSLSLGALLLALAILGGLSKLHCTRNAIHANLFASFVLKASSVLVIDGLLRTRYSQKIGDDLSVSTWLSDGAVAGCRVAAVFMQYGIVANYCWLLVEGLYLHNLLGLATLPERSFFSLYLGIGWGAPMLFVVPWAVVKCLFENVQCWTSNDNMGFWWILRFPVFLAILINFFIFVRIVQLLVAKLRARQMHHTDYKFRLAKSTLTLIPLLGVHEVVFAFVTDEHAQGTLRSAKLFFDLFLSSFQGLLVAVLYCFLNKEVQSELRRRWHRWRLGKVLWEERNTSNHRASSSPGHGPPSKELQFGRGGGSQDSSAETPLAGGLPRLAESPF
Assay [2] concerns the target T2, hGIPR (Homo sapiens, UniProt P48546).
T2 sequence (P48546 22-466): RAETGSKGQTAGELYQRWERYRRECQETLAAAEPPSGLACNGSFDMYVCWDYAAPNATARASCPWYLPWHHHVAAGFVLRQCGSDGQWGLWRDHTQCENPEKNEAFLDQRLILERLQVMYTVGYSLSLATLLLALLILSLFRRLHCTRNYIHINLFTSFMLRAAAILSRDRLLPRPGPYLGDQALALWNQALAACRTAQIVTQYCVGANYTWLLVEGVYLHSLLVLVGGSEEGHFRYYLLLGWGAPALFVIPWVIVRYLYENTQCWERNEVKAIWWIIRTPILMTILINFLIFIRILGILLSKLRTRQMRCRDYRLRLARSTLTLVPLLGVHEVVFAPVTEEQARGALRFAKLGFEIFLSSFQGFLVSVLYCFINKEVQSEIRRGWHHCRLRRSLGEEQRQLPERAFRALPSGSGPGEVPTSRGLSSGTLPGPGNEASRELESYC
As to the kind of experiment: Functional cAMP activation in the presence of 0.1% casein (no HSA). The note with it: read-out: Relative cAMP EC50, hGIPR.

Assay [3] addresses T2, hGIPR. Put plainly: Functional cAMP activity in the presence of 1% HSA. The conditions noted are these: read-out: cAMP Rel EC50, hGIPR.
Assay [4] addresses T1, hGLP-1R. Put plainly: Functional cAMP activity in the presence of 1% HSA. The conditions noted are these: read-out: cAMP Rel EC50, hGLP-1R.

The text below walks through data of patent US20240270821A1, “GIP/GLP1/GCG TRI-RECEPTOR AGONISTS AND USES THEREOF” (priority 2023, published 2024).

What is called pEC50 is the EC50 on a negative log10 scale, so that one unit is a factor of ten.

pEC50: −log10 of the molar value. Starred links: 1 amine or outer side, 2 acyl side, 3 side chain; linkers in the order of their positions; H or OH if unused. Non-standard residues stand in square brackets, D forms with d. Residues, ends and D or L forms follow the SMILES beside them. Groups on a side chain read outwards from the residue. *: point of attachment. C18 diacid = O=C(O)CCCCCCCCCCCCCCCCC(=O)*; αMePhe(2-F) = C[C@](N)(Cc1ccccc1F)C(=O)O; γGlu = O=C(O)[C@H](CCC(=O)[*:2])N[*:1]; αMeY = C[C@](N)(Cc1ccc(O)cc1)C(=O)O; 4Pal = N[C@@H](Cc1ccncc1)C(=O)O; αMeL = CC(C)C[C@](C)(N)C(=O)O; αMeS = C[C@](N)(CO)C(=O)O; Orn = NCCC[C@H](N)C(=O)O; AEEA = NCCOCCOCC(=O)O; Aib = CC(C)(N)C(=O)O
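For Relative cAMP EC50, hGIPR in this document: intracellular cAMP rise after 30 min at 37 °C read by HTRF against a standard curve, scaled between buffer alone (0%) and top control ligand concentration (100%), four-parameter fit.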
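For Relative cAMP EC50, hGLP-1R in this document: intracellular cAMP rise after 30 min at 37 °C read by HTRF, normalized between buffer only (0%) and maximal control ligand (100%), four-parameter variable-slope fit.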
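For Relative cAMP EC50, hGcgR in this document: intracellular cAMP rise after 30 min at 37 °C, read by HTRF against a cAMP standard curve, scaled from buffer only (0%) to maximal control ligand response (100%).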

Sequence of hGcgR (P47871 26-477): as the sequence (P47871 26-477) above
T1 sequence (P43220 24-463): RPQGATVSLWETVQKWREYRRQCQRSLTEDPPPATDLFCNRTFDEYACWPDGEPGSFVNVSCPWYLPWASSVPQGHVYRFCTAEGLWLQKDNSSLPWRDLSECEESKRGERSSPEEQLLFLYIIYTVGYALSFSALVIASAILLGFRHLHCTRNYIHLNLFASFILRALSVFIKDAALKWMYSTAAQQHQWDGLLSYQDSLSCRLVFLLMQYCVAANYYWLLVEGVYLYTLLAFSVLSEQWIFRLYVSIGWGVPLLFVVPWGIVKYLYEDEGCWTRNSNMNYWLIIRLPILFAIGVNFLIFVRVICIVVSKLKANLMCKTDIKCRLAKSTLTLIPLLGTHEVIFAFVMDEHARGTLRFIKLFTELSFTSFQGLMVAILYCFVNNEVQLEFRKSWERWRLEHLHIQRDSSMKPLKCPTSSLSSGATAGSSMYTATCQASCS

With `CC[C@H](C)[C@H](NC(=O)[C@H](CC(C)C)NC(=O)[C@H](Cc1ccc(O)cc1)NC(=O)[C@@H](CCC(=O)O)NC(=O)[C@@H](NC(=O)[C@H](Cc1ccccc1)NC(=O)[C@H](CCCN)NC(=O)C(C)(C)NC(=O)[C@H](CCC(N)=O)NC(=O)[C@H](C)NC(=O)[C@H](CCCCNC(=O)COCCOCCNC(=O)CC[C@H](NC(=O)CCCCCCCCCCCCCCCCC(=O)O)C(=O)O)NC(=O)[C@H](CCCN)NC(=O)[C@H](CC(=O)O)NC(=O)[C@H](CC(C)C)NC(=O)[C@](C)(CC(C)C)NC(=O)[C@@H](NC(=O)[C@](C)(CO)NC(=O)[C@H](Cc1ccncc1)NC(=O)[C@H](CC(=O)O)NC(=O)[C@H](CO)NC(=O)[C@@H](NC(=O)[C@](C)(Cc1ccccc1F)NC(=O)[C@@H](NC(=O)CNC(=O)[C@H](CCC(N)=O)NC(=O)C(C)(C)NC(=O)[C@@H](N)Cc1ccc(O)cc1)[C@@H](C)O)[C@@H](C)O)[C@@H](C)CC)[C@@H](C)CC)C(=O)N[C@@H](CCC(=O)O)C(=O)NCC(=O)NCC(=O)N1CCC[C@H]1C(=O)N[C@@H](CO)C(=O)N[C@@H](CO)C(=O)NCC(=O)N[C@@H](CCC(=O)O)C(=O)N1CCC[C@H]1C(=O)N1CCC[C@H]1C(=O)N1CCC[C@H]1C(=O)N[C@@H](CCC(=O)O)C(N)=O` [Example 458] (H-Y[Aib]QGT[αMePhe(2-F)]TSD[4Pal][αMeS]I[αMeL]LD[Orn]K([AEEA-γGlu-C18 diacid])AQ[Aib][Orn]FI[dE]YLIEGGPSSGEPPPE-NH2), the pEC50 is 9.46 on hGLP-1R [1]; 8.28 on hGcgR; 6.50 on human GcgR; 10.35 on hGIPR [2]; 8.09 on hGIPR [3]; 7.64 on hGLP-1R [4].
For `CC[C@H](C)[C@H](NC(=O)[C@H](CC(C)C)NC(=O)[C@H](Cc1ccc(O)cc1)NC(=O)[C@H](CCC(=O)O)NC(=O)[C@@H](NC(=O)[C@H](Cc1ccccc1)NC(=O)[C@H](CCCN)NC(=O)C(C)(C)NC(=O)[C@H](CCC(N)=O)NC(=O)[C@H](C)NC(=O)[C@H](CCCCNC(=O)COCCOCCNC(=O)CC[C@H](NC(=O)CCCCCCCCCCCCCCCCC(=O)O)C(=O)O)NC(=O)[C@H](CCCN)NC(=O)[C@H](CC(=O)O)NC(=O)[C@H](CC(C)C)NC(=O)[C@](C)(CC(C)C)NC(=O)[C@@H](NC(=O)[C@](C)(CO)NC(=O)[C@H](Cc1ccncc1)NC(=O)[C@H](CC(=O)O)NC(=O)[C@H](CO)NC(=O)[C@@H](NC(=O)[C@](C)(Cc1ccccc1F)NC(=O)[C@@H](NC(=O)CNC(=O)[C@H](CCC(N)=O)NC(=O)C(C)(C)NC(=O)[C@@H](N)Cc1ccc(O)cc1)[C@@H](C)O)[C@@H](C)O)[C@@H](C)CC)[C@@H](C)CC)C(=O)N[C@@H](CCC(=O)O)C(=O)NCC(=O)NCC(=O)N1CCC[C@H]1C(=O)N[C@@H](CO)C(=O)N[C@@H](CO)C(=O)NCC(=O)N[C@@H](CCC(=O)O)C(=O)N1CCC[C@H]1C(=O)N1CCC[C@H]1C(=O)N1CCC[C@H]1C(=O)N[C@@H](CCC(=O)O)C(N)=O` [Example 459] (H-Y[Aib]QGT[αMePhe(2-F)]TSD[4Pal][αMeS]I[αMeL]LD[Orn]K([AEEA-γGlu-C18 diacid])AQ[Aib][Orn]FIEYLIEGGPSSGEPPPE-NH2), the negative logarithm of the EC50 (pEC50) at hGLP-1R [1] was 9.75; on hGcgR, 8.92; on human GcgR, 7.13; on hGIPR [2], 10.91; on hGIPR [3], 8.69; on hGLP-1R [4] it was 7.90.
Consider `CC[C@H](C)[C@H](NC(=O)[C@H](Cc1ccccc1)NC(=O)[C@H](CCCN)NC(=O)C(C)(C)NC(=O)[C@H](CCC(N)=O)NC(=O)[C@H](C)NC(=O)[C@H](CCCCNC(=O)COCCOCCNC(=O)CC[C@H](NC(=O)CCCCCCCCCCCCCCCCC(=O)O)C(=O)O)NC(=O)[C@H](CCCN)NC(=O)[C@H](CC(=O)O)NC(=O)[C@H](CC(C)C)NC(=O)[C@](C)(CC(C)C)NC(=O)[C@@H](NC(=O)[C@](C)(CO)NC(=O)[C@H](Cc1ccncc1)NC(=O)[C@H](CC(=O)O)NC(=O)[C@H](CO)NC(=O)[C@@H](NC(=O)[C@](C)(Cc1ccccc1F)NC(=O)[C@@H](NC(=O)CNC(=O)[C@H](CCC(N)=O)NC(=O)C(C)(C)NC(=O)[C@@H](N)Cc1ccc(O)cc1)[C@@H](C)O)[C@@H](C)O)[C@@H](C)CC)C(=O)N[C@H](CCC(=O)O)C(=O)N[C@@H](Cc1ccc(O)cc1)C(=O)N[C@@H](CC(C)C)C(=O)N[C@@H](CC(C)C)C(=O)N[C@@H](CCC(=O)O)C(=O)NCC(=O)NCC(=O)N1CCC[C@H]1C(=O)N[C@@H](CO)C(=O)N[C@@H](CO)C(=O)NCC(=O)N[C@@H](CCC(=O)O)C(=O)N1CCC[C@H]1C(=O)N1CCC[C@H]1C(=O)N1CCC[C@H]1C(=O)N[C@@H](CCC(=O)O)C(N)=O` [Example 460] (H-Y[Aib]QGT[αMePhe(2-F)]TSD[4Pal][αMeS]I[αMeL]LD[Orn]K([AEEA-γGlu-C18 diacid])AQ[Aib][Orn]FI[dE]YLLEGGPSSGEPPPE-NH2), for which the pEC50 was 9.20 on hGLP-1R [1]; 8.72 on hGcgR; 6.85 at human GcgR; 10.20 on hGIPR [2]; 8.05 at hGIPR [3]; 7.51 at hGLP-1R [4].
As to `CC[C@H](C)[C@H](NC(=O)[C@H](CC(C)C)NC(=O)[C@](C)(Cc1ccc(O)cc1)NC(=O)[C@@H](CCC(=O)O)NC(=O)[C@@H](NC(=O)[C@H](Cc1ccccc1)NC(=O)[C@H](CCCN)NC(=O)C(C)(C)NC(=O)[C@H](CCC(N)=O)NC(=O)[C@H](C)NC(=O)[C@H](CCCCNC(=O)COCCOCCNC(=O)CC[C@H](NC(=O)CCCCCCCCCCCCCCCCC(=O)O)C(=O)O)NC(=O)[C@H](CCCN)NC(=O)[C@H](CC(=O)O)NC(=O)[C@H](CC(C)C)NC(=O)[C@](C)(CC(C)C)NC(=O)[C@@H](NC(=O)[C@](C)(CO)NC(=O)[C@H](Cc1ccncc1)NC(=O)[C@H](CC(=O)O)NC(=O)[C@H](CO)NC(=O)[C@@H](NC(=O)[C@](C)(Cc1ccccc1F)NC(=O)[C@@H](NC(=O)CNC(=O)[C@H](CCC(N)=O)NC(=O)C(C)(C)NC(=O)[C@@H](N)Cc1ccc(O)cc1)[C@@H](C)O)[C@@H](C)O)[C@@H](C)CC)[C@@H](C)CC)C(=O)N[C@@H](CCC(=O)O)C(=O)NCC(=O)NCC(=O)N1CCC[C@H]1C(=O)N[C@@H](CO)C(=O)N[C@@H](CO)C(=O)NCC(=O)N[C@@H](CCC(=O)O)C(=O)N1CCC[C@H]1C(=O)N[C@@H](CCC(=O)O)C(=O)N1CCC[C@H]1C(=O)N[C@@H](CCC(=O)O)C(N)=O` [Example 461] (H-Y[Aib]QGT[αMePhe(2-F)]TSD[4Pal][αMeS]I[αMeL]LD[Orn]K([AEEA-γGlu-C18 diacid])AQ[Aib][Orn]FI[dE][αMeY]LIEGGPSSGEPEPE-NH2), the negative logarithm of the EC50 (pEC50) at hGLP-1R [1] was 9.71; at hGcgR it was 8.82; at human GcgR it was 6.88; on hGIPR [2], 10.77; on hGIPR [3], 8.60; at hGLP-1R [4], 7.92.
As for `CC[C@H](C)[C@H](NC(=O)[C@H](Cc1ccccc1)NC(=O)[C@H](C)NC(=O)C(C)(C)NC(=O)[C@H](CCC(N)=O)NC(=O)[C@H](C)NC(=O)[C@H](CCCCNC(=O)COCCOCCNC(=O)CC[C@H](NC(=O)CCCCCCCCCCCCCCCCC(=O)O)C(=O)O)NC(=O)[C@H](CCCCN)NC(=O)[C@H](CC(=O)O)NC(=O)[C@H](CC(C)C)NC(=O)[C@H](CC(C)C)NC(=O)[C@@H](NC(=O)[C@](C)(CO)NC(=O)[C@H](Cc1ccncc1)NC(=O)[C@H](CC(=O)O)NC(=O)[C@H](CO)NC(=O)[C@@H](NC(=O)[C@](C)(Cc1ccccc1F)NC(=O)[C@@H](NC(=O)CNC(=O)[C@H](CCC(N)=O)NC(=O)C(C)(C)NC(=O)[C@@H](N)Cc1ccc(O)cc1)[C@@H](C)O)[C@@H](C)O)[C@@H](C)CC)C(=O)N[C@@H](CCC(=O)O)C(=O)N[C@@H](Cc1ccc(O)cc1)C(=O)N[C@@H](CC(C)C)C(=O)N[C@@H](CCC(=O)O)C(=O)N[C@@H](CCC(=O)O)C(=O)NCC(=O)NCC(=O)N1CCC[C@H]1C(=O)N[C@@H](CO)C(=O)N[C@@H](CO)C(=O)NCC(=O)N[C@@H](C)C(=O)N1CCC[C@H]1C(=O)N1CCC[C@H]1C(=O)N1CCC[C@H]1C(=O)N[C@@H](CCC(=O)O)C(N)=O` [Example 464] (H-Y[Aib]QGT[αMePhe(2-F)]TSD[4Pal][αMeS]ILLDKK([AEEA-γGlu-C18 diacid])AQ[Aib]AFIEYLEEGGPSSGAPPPE-NH2), the negative-log EC50 (pEC50) was 9.33 on hGLP-1R [1]; 8.90 on hGcgR; 6.71 on human GcgR; 10.14 at hGIPR [2]; 7.70 at hGIPR [3]; 7.34 at hGLP-1R [4].
